Assays:
[1] = Example 8 pharmacokinetics assay for PKPD study (plasma, tumor, liver); assay type: in vivo, BALB/c nude mice; conditions: 10 mg/kg, p.o., single dose; for concentration at 6 h / concentration at 12 h / concentration at 1 h / concentration at 24 h: mouse, po
Description: For the PK and PD study, agents were administered to BALB/c nude mice bearing A375 human melanoma xenografts tumors. encorafenib, Compound 8, Compound 26, Compound 38, and Compound 39 were dosed p.o. once on day 1. Encorafenib was dosed at 35 mg/kg, Compound 8, Compound 26, Compound 38, and Compound 39 were dosed at 10 mg/kg. This study was non-GLP.
(§1) The plasma samples were collected at predetermined time points for PK analysis. For non-termination plasma collection, blood samples were collected into the 1.5 mL Eppendorf tubes containing 3 μL of 0.5 M EDTA-K2. For termination plasma collection, the mice were euthanized at predetermined time points post the treatment and the blood samples were collected into the 1.5 mL Eppendorf tubes containing 15 μL of 0.5 M EDTA-K2. And then the anticoagulant blood samples were centrifuged at 2,500 g at 4° C. for 15 minutes. The plasma samples were separated into 2 aliquots. The 1st was used for PK analysis, and the 2nd served as backup. The samples were stored at −80° C. before bioanalysis.
(§2) The tumor samples were collected at predetermined time points for PK and WB analysis. The tumor was dissected out and split into 3 parts. The 1st part was used for PK analysis, the 2nd part was used for WB analysis and the last one served as backup for study. The samples were transferred into pre-labeled tubes and quickly froze in liquid nitrogen within 2 minutes after dissection. The samples were stored at −80° C. before bioanalysis.
(§3) Liver samples were collected at predetermined time points for PK analysis. The left lobe of the liver was dissected out and split into 2 parts. The 1st part was used for PK analysis and the 2nd part served as the backup for the study. The samples were transferred into pre-labeled tubes and quickly froze in liquid nitrogen within 2 minutes after dissection. The samples were stored at −80° C. before bioanalysis.
The harvested plasma and liver samples were processed for pharmacokinetics analysis by LC-MS/MS with a concentration range of 0.200~200 ng/mL for encorafenib in plasma and liver homogenate, and 0.100-100 ng/ml in tumor homogenate, 1.00-1000 ng/mL for Compound 8 in plasma and 0.500~500 ng/ml in tumor and liver homogenate, 50.0~50,000 ng/mL for Compound 26 and Compound 38 in plasma, 5.0~5000 ng/ml in liver and 2.00~2000 ng/ml in tumor homogenate, 1.00-1000 ng/mL for Compound 39 in plasma and 0.500~500 ng/mL in liver and tumor homogenate.

[2] = Example 7 pharmacokinetics assay for PKPD study (plasma, tumor, liver); assay type: in vivo, BALB/c nude mice; conditions: mouse, po, 10 mg/kg, p.o., single dose
Description: For the PK and PD study, agents were administered to BALB/c nude mice bearing A375 human melanoma xenografts tumors. Dabrafenib, Compound 141, Compound 118, Compound 156, and Compound 180 were dosed p.o. once on day 1. Known BRAF inhibitor Dabrafenib was used as a positive control. Dabrafenib was dosed at 100 mg/kg. Compound 141, Compound 118, Compound 156, and Compound 180 were dosed at 10 mg/kg.
as §1, with “The” for “For non-termination plasma collection, blood samples were collected into the 1.5 mL Eppendorf tubes containing 3 μL of 0.5 M EDTA-K2. For termination plasma collection, the”, “treatment. The” for “treatment and the”
as §2, §3
The harvested plasma and liver samples were processed for pharmacokinetics analysis by LC-MS/MS with a concentration range of 0.500-1000 ng/mL for Dabrafenib, Compound 118 and Compound 180 in plasma, 0.100~200 ng/ml for Dabrafenib in Liver and tumor homogenate, 50.0~50,000 ng/mL for Compound 141 in plasma and Liver homogenate, 1.00-1000 ng/ml for Compound 141 in tumor homogenate, 2.00~2000 ng/mL for Compound 118 and Compound 180 in Liver and 0.200~200 ng/ml in tumor homogenate, 1.00~2000 ng/mL for Compound 156 in plasma, 0.500-1000 ng/ml in liver and 0.500-1,000 ng/ml in tumor homogenate.

[3] = liver, 6 h, read-out: Concentration in Liver (mean ± SEM)
[4] = plasma, 1 h, read-out: Concentration in Plasma (mean ± SEM)
[5] = plasma, 6 h, read-out: Concentration in Plasma (mean ± SEM)
[6] = plasma, 12 h, read-out: Concentration in Plasma (mean ± SEM)
[7] = tumor, 1 h, read-out: Concentration in Tumor (mean ± SEM)
[8] = tumor, 6 h, read-out: Concentration in Tumor (mean ± SEM)
[9] = tumor, 12 h, read-out: Concentration in Tumor (mean ± SEM)
[10] = liver, read-out: Concentration in Liver (mean ± SEM)
[11] = plasma, read-out: Concentration in Plasma (mean ± SEM)
[12] = tumor, read-out: Concentration in Tumor (mean ± SEM)

CCN(C)S(=O)(=O)Nc1ccc(F)c(Oc2ccc3ncn(C4CC5(CCN(C6CCC(c7cc8c(cc7F)c(N7CCC(=O)NC7=O)nn8C)CC6)CC5)C4)c(=O)c3c2)c1C#N (single isomer, unassigned) [Compound 8, 6-[2-cyano-3-[[ethyl(methyl)sulfamoyl]amino]-6-fluoro-phenoxy]-3-[7-[4-[3-(2,4-dioxohexahydropyrimidin-1-yl)-5-fluoro-1-methyl-indazol-6-yl]cyclohexyl]-7-azaspiro[3.5]nonan-2-yl]-4-oxo-quinazoline]
concentration at 6 h [1, 3]: 379 ± 79.8 ng/g | concentration at 12 h ([1]; liver, 12 h, read-out: Concentration in Liver (mean ± SEM)): 74.8 ± 11.3 ng/g | concentration at 1 h [1, 4]: 2940 ± 149 ng/mL | concentration at 6 h [1, 5]: 339 ± 60.3 ng/mL | concentration at 12 h [1, 6]: 64.7 ± 16.8 ng/mL | concentration at 24 h ([1]; plasma, 24 h, read-out: Concentration in Plasma (mean ± SEM)): 1.27 ± 0.2 ng/mL | concentration at 1 h [1, 7]: 394 ± 17.6 ng/g | concentration at 6 h [1, 8]: 139 ± 21.7 ng/g | concentration at 12 h [1, 9]: 39.1 ± 5.77 ng/g | concentration at 24 h ([1]; tumor, 24 h, read-out: Concentration in Tumor (mean ± SEM)): 8.52 ng/g

CCN(C)S(=O)(=O)Nc1ccc(F)c(Oc2ccc3ncn([C@H]4COC5(CCC(N6CCC(c7cc8c(cc7F)c(N7CCC(=O)NC7=O)nn8C)C(F)(F)C6)CC5)C4)c(=O)c3c2)c1C#N (single isomer, unassigned) [Compound 38]
Concentration in Liver (mean ± SEM) ([1]; 12 h, 720 min): 11243 ± 2595 ng/g | Concentration in Plasma (mean ± SEM) ([1]; 24 h, 1440 min): 1797 ± 63.3 ng/mL | Concentration in Tumor (mean ± SEM) ([1]; 24 h, 1440 min): 369 ± 42.6 ng/g | concentration at 6 h [1, 3]: 25500 ± 3820 ng/g | concentration at 1 h [1, 4]: 32000 ± 3960 ng/mL | concentration at 6 h [1, 5]: 16400 ± 1500 ng/mL | concentration at 12 h [1, 6]: 6810 ± 795 ng/mL | concentration at 1 h [1, 7]: 3320 ± 523 ng/g | concentration at 6 h [1, 8]: 3830 ± 736 ng/g | concentration at 12 h [1, 9]: 1990 ± 415 ng/g

CCN(C)S(=O)(=O)Nc1ccc(F)c(Oc2ccc3ncn([C@H]4COC5(CCC(N6CCC(c7cc8c(cc7F)c(N7CCC(=O)NC7=O)nn8C)C(F)(F)C6)CC5)C4)c(=O)c3c2)c1C#N (single isomer, unassigned) [Compound 39]
Concentration in Plasma (mean ± SEM) ([1]; 1 h, 60 min): 34700 ± 3785 ng/mL | Concentration in Tumor (mean ± SEM) ([1]; 1 h, 60 min): 3423 ± 648 ng/g | Concentration in Liver (mean ± SEM) ([1]; 6 h, 360 min): 18200 ± 1735 ng/g | Concentration in Plasma (mean ± SEM) ([1]; 6 h, 360 min): 15700 ± 1358 ng/mL | Concentration in Tumor (mean ± SEM) ([1]; 6 h, 360 min): 4713 ± 256 ng/g | Concentration in Liver (mean ± SEM) ([1]; 12 h, 720 min): 5610 ± 455 ng/g | Concentration in Plasma (mean ± SEM) ([1]; 12 h, 720 min): 3973 ± 202 ng/mL | Concentration in Tumor (mean ± SEM) ([1]; 12 h, 720 min): 1510 ± 43.6 ng/g | Concentration in Plasma (mean ± SEM) ([1]; 24 h, 1440 min): 171 ± 20.8 ng/mL | Concentration in Tumor (mean ± SEM) ([1]; 24 h, 1440 min): 79.3 ± 25.3 ng/g

CCN(C)S(=O)(=O)Nc1ccc(F)c(Oc2ccc3ncc(OCC4CCN(C5CCC(c6cc7c(cc6F)c(N6CCC(=O)NC6=O)nn7C)CC5)CC4)nc3c2)c1C#N (single isomer, unassigned) [Compound 118, 7-[2-cyano-3-[[ethyl(methyl)sulfamoyl]amino]-6-fluoro-phenoxy]-2-[[1-[4-[3-(2,4-dioxohexahydropyrimidin-1-yl)-5-fluoro-1-methyl-indazol-6-yl]cyclohexyl]-4-piperidyl]methoxy]quinoxaline]
concentration at 6 h [2, 10]: 103000 ± 9270 ng/g | concentration at 12 h [2, 10]: 111000 ± 12000 ng/g | concentration at 1 h [2, 11]: 1240 ± 90.2 ng/mL | concentration at 6 h [2, 11]: 1500 ± 574 ng/mL | concentration at 12 h [2, 11]: 985 ± 234 ng/mL | concentration at 24 h [2, 11]: 595 ± 81.8 ng/mL | concentration at 1 h [2, 12]: 345 ± 57.4 ng/g | concentration at 6 h [2, 12]: 855 ± 257 ng/g | concentration at 12 h [2, 12]: 509 ± 101 ng/g | concentration at 24 h [2, 12]: 254 ± 7.8 ng/g

CCN(C)S(=O)(=O)Nc1ccc(F)c(Oc2ccc3ncc(C4CC5(CCN(C6CCC(c7cc8c(cc7F)c(N7CCC(=O)NC7=O)nn8C)CC6)CC5)C4)nc3c2)c1C#N (single isomer, unassigned) [Compound 180, 7-[2-cyano-3-[[ethyl(methyl)sulfamoyl]amino]-6-fluoro-phenoxy]-2-[7-[4-[3-(2,4-dioxohexahydropyrimidin-1-yl)-5-fluoro-1-methyl-indazol-6-yl]cyclohexyl]-7-azaspiro[3.5]nonan-2-yl]quinoxaline]
concentration at 6 h [2, 10]: 712 ± 282 ng/g | concentration at 12 h [2, 10]: 247 ± 33.7 ng/g | concentration at 1 h [2, 11]: 5110 ± 867 ng/mL | concentration at 6 h [2, 11]: 260 ± 84.3 ng/mL | concentration at 12 h [2, 11]: 155 ± 27.8 ng/mL | concentration at 24 h [2, 11]: 1.54 ± 0.588 ng/mL | concentration at 1 h [2, 12]: 680 ± 72.8 ng/g | concentration at 6 h [2, 12]: 245 ± 34.7 ng/g | concentration at 12 h [2, 12]: 82.6 ± 21.8 ng/g | concentration at 24 h [2, 12]: 3.89 ng/g

CCN(C)S(=O)(=O)Nc1ccc(F)c(Oc2ccc3ncn(C4CC5(CCN(C6CC7(C6)CN(c6cc8c(cc6F)c(N6CCC(=O)NC6=O)nn8C)C7)CC5)C4)c(=O)c3c2)c1C#N (stereo not shown) [Compound 141, 6-[2-cyano-3-[[ethyl(methyl)sulfamoyl]amino]-6-fluoro-phenoxy]-3-[7-[2-[3-(2,4-dioxohexahydropyrimidin-1-yl)-5-fluoro-1-methyl-indazol-6-yl]-2-azaspiro[3.3]heptan-6-yl]-7-azaspiro[3.5]nonan-2-yl]-4-oxo-quinazoline]
concentration at 6 h [2, 10]: 9730 ± 1380 ng/g | concentration at 12 h [2, 10]: 3050 ± 618 ng/g | concentration at 1 h [2, 11]: 17700 ± 924 ng/mL | concentration at 6 h [2, 11]: 10700 ± 1420 ng/mL | concentration at 12 h [2, 11]: 2530 ± 365 ng/mL | concentration at 24 h [2, 11]: 219 ± 74.6 ng/mL | concentration at 1 h [2, 12]: 2120 ± 109 ng/g | concentration at 6 h [2, 12]: 2230 ± 114 ng/g | concentration at 12 h [2, 12]: 818 ± 121 ng/g | concentration at 24 h [2, 12]: 75.4 ± 24.3 ng/g

CCN(C)S(=O)(=O)Nc1ccc(F)c(Oc2ccc3ncn(C4CC5(CCN(C6CCN(c7cc8c(cc7F)c(N7CCC(=O)NC7=O)nn8C)CC6)CC5)C4)c(=O)c3c2)c1C#N [Compound 156, 6-[2-cyano-3-[[ethyl(methyl)sulfamoyl]amino]-6-fluoro-phenoxy]-3-[7-[1-[3-(2,4-dioxohexahydropyrimidin-1-yl)-5-fluoro-1-methyl-indazol-6-yl]-4-piperidyl]-7-azaspiro[3.5]nonan-2-yl]-4-oxo-quinazoline]
concentration at 6 h [2, 10]: 1460 ± 170 ng/g | concentration at 12 h [2, 10]: 262 ± 100 ng/g | concentration at 1 h [2, 11]: 4130 ± 545 ng/mL | concentration at 6 h [2, 11]: 805 ± 85.2 ng/mL | concentration at 12 h [2, 11]: 111 ± 46.3 ng/mL | concentration at 24 h [2, 11]: 1.78 ± 0.554 ng/mL | concentration at 1 h [2, 12]: 758 ± 66.9 ng/g | concentration at 6 h [2, 12]: 295 ± 30.3 ng/g | concentration at 12 h [2, 12]: 102 ± 35.6 ng/g | concentration at 24 h [2, 12]: 33.5 ng/g
